Experimental data published in publication PMC6114901, “An automated screening method for detecting compounds with goitrogenic activity using transgenic zebrafish embryos” (PLoS ONE, 2018).
“Also recorded” adds a separate entry of the source.

Columns and labels:
[1] = in vivo; conditions: zebrafish, in vivo
[2] = ref chemspider (http://www.chemspider.com); cited from earlier work
[3] = test system: thyroglobulin (tg:mCherry reporter gene); experiment: animal or person
Description: In order to avoid interference of test chemicals with early thyroid gland development, zebrafish embryos were cultured in exposure medium until 48 hours post fertilization (hpf). Subsequently, they were exposed to seven known thyroid endocrine disrupters for 3 days (48 to 120 hpf). The non-goitrogenic compound 3,4-dichloroaniline, that is used as reference compound in the zebrafish acute embryo toxicity test was used as negative control. […] No solvents were used. […] Five concentrations and one control were tested per compound and replicate. In the second replicate the range of concentration was adjusted to improve fitting of concentration-response curves. […] Given the lack of appropriate spectral properties stability of exposure concentrations was not analysed for potassium perchlorate. Embryos were kept in the incubator at 26°C and a 14:10 hours light:dark cycle. The exposure was conducted in crystallisation dishes covered with watchmaker glasses with 30 embryos in 30 ml exposure medium (for exposure medium refer to [26]).
Embryos were positioned ventrally toward the microscope objective. Per embryo a bright field image, an autofocus fluorescence image and a Z-stack of 9 images were obtained. The Z-stack was required in case of autofocus failure and manual selection of the focal plane. Fluorescence images were obtained with 400 ms of fluorescent light exposure at maximal light intensity and a gain of 1. […] However, care was taken, that at least 10 images per concentration and replicates were assessed. To avoid a time bias during the analysis the sequence of wells for analysis was arranged in order to obtain a uniform distribution over the entire period of analysis.
The images were analysed using a KNIME workflow (Version 3.3.3., [29]) with the extension “KNIME image processing”. In brief, images were loaded into the workflow and the background was removed automatically using the “rolling ball” procedure of the image J plugin (rolling ball size set to 50 pixels). Subsequently the area containing the thyroid gland was manually selected by drawing a rectangle around the appropriate region using the interactive annotation node. […] If possible the autofocus images were used. In case that the thyroid gland was out of focus due to the presence of autofluorescing pigment cells, an appropriate image from the Z-stack was selected. All subsequent steps were conducted without any user interaction. […] Finally the sum of pixel (reflecting area of the thyroid gland and intensity of fluorescence) was calculated for the labeled area and used as a proxy of fluorescence intensity (see Fig 1 for an overview of the workflow). For each replicate the sum was of pixels was normalized by setting controls to the value of one. For data of individual embryos see S4 Table. The KNIME workflow used for image analysis is provided as supplement file (S1 Workflow).
To characterize the potency of the investigated goitrogenic compounds, we calculated EC50 values of tg:mcherry fluorescence using the pixel sum obtained from image analysis. For each replicate the fluorescence intensity was normalized by dividing the mean fluorescence intensity of each concentration with the mean control fluorescence intensity. Concentration-response curves of tgmcherry fluorescence were fitted to the data using the Hill-slope equation (Eq 1) and used to estimate EC50 values.
The parameter Min was set to 1 and the slope (p) and the maximum fluorescence (Max) were estimated.

[4] = test system: thyroid hormone levels (T4); conditions: ref Thienpont et al. [13], cited from earlier work

Row | SMILES | LC50 ([1]; LC50 (48–120 hpf), mortality, embryos exposed 48–120 hpf) [µM] | LC50 ([1]; LC50, mortality after 48 h of exposure, S2 Fig, unit inferred) [µM] | LC50 ([1]; LC50, mortality after 72 h of exposure, S2 Fig, unit inferred) [µM] | Log D (pH 7.4) [2] | effect on tg:mCherry fluorescence ([3]; zebrafish, in vivo) | EC50 ([4]; read-out: EC50 T4 reduction, reduction of thyroid hormone levels (immunostaining)) [µM] | TDI (T4) ([4]; thyroid disruption index based on T4 reduction) | Normalised mean pixel sum ([3]; 0.13 µM, replicate 2) | Normalised mean pixel sum ([3]; 0.493827 µM, replicate 1) | Normalised mean pixel sum ([3]; 1.91 µM, replicate 2) | Normalised mean pixel sum ([3]; 7.40741 µM, replicate 1) | Normalised mean pixel sum ([3]; 29 µM, replicate 2) | Normalised mean pixel sum ([3]; 111.111 µM, replicate 1) | Normalised mean pixel sum ([3]; 430 µM, replicate 2) | Normalised mean pixel sum ([3]; 1666.67 µM, replicate 1) | Normalised mean pixel sum ([3]; 6455 µM, replicate 2) | Slope ([3]; Hill slope of tg:mCherry concentration-response curve) | BMD 20 ([3]; concentration at which a 20% increase of tg:mCherry fluorescence was observed) [µM] | EC50 ([3]; read-out: EC50 (tg:mCherry induction), exposure 48–120 hpf, Hill-slope model) [µM] | TDI ([3]; thyroid disruption index = LC50/EC50 tg:mCherry induction)
1 | Nc1ccc(Cl)c(Cl)c1 [3,4-DCA, 3,4-dichloroaniline] | 29.4 | 319 | 59.4 | 2.6 | decreased the fluorescence signal; also recorded: did not induce tg:mCherry fluorescence but led to a concentration dependent reduction in fluorescence |  |  |  |  |  |  |  |  |  |  |  |  |  |  | 
2 | [K+].[O-][Cl+3]([O-])([O-])[O-] [Potassium perchlorate, potassium perchlorate] |  |  |  |  |  | 2.5 | 6030 | 0.90 | 1.06 | 1.30 | 0.86 | 1.75 | 1.38 | 1.97 | 2.55 | 2.16 | 0.69 | 37.6 | 137 | 241
